From patent publication US11618738B2, “Compound and application thereof in treating inflammation or inflammation-related diseases” (SICHUAN CENTER FOR TRANSLATIONAL MEDICINE OF TRADITIONAL …, priority 2017, dated 2023)
Marks after values point to notes of the source that are not given here.

Columns and labels:
Format in all cases: in vivo
[1] = test system: hot plate pain in mice; assay: Hot plate pain threshold in mice; settings: for Percentage increase in pain threshold (%): mean ± SD
Description: The hot plate method uses a certain intensity of warm heat to stimulate mice to produce pain reaction. This experiment observes the analgesic effect of UTLOH series compounds.
Female SPF-grade Kunming mice (18-22 g/mouse) were put in a hot plate apparatus at a temperature of 55±0.5° C., and the pain threshold of the mice was measured. The measurement was performed twice, and the measurement was performed every 5 minutes. Taking the mouse licking hind feet as the observation index. The mice with pain response within 30 s were selected as experimental animals. The pre-selected qualified mice were randomly grouped according to their body weight. The blank group was intraperitoneally injected with 0.2 ml/10 g body weight of normal saline, and the other groups were intraperitoneally injected with corresponding drugs. The pain threshold was measured 30 and 60 minutes after the administration. If the mouse had no pain within 60 seconds, it was taken out immediately and calculated at 60 seconds.

[2] = test system: acute gouty arthritis in rats induced by sodium urate crystals; assay: Foot swelling in rats with acute gouty arthritis induced by sodium urate crystals; settings: for foot volume compared with the model group (in words): medium- and high-dose groups, 24 h and 48 h after injection of sodium urate crystals
Description: Injecting sodium urate crystals into the joint cavity to establish an acute gouty arthritis model. Its pathological and clinical manifestations are very similar. It is a classic method commonly used in animal experiments to study gouty arthritis. This experiment will explore the effects of UTLOH series drugs on animals with acute gouty arthritis induced by sodium urate.
SPF grade SD rats, half female and half male (200-220 g/mouse), were randomly grouped by weight. The drug was administered once a day, for 3 consecutive days. […] Rats in the normal group were injected with an equal volume of sterile saline to the back of the right ankle joint. The administration was continued after modeling, once a day for 3 consecutive days. The ankle joint and foot volume of the rats in each group were measured respectively before modeling and 2 h, 4 h, 8 h, 24 h and 48 h after modeling.

[3] = test system: OA-induced hyperuricemia model mice; assay: Serum UA in oxonic acid potassium salt-induced hyperuricemia model mice; settings: for UA: serum, oxonic acid potassium salt 300 mg/kg i.p., mean ± SD
Description: Oxoxazine potassium salt can directly increase blood uric acid levels in animals. In this experiment, intraperitoneal injection of oxonic acid potassium salt was used to observe the uric acid-lowering effect of UTLOH series drugs.
(§1) SPF grade KM mice, half female and half male (18-22 g/mouse). After the animals were adaptively fed for 3 days, they were randomly grouped by body weight. It was administered once a day for 7 consecutive days by gavage. On the 7th day, 1 hour before the gavage administration, the mice were intraperitoneally injected with a dose of 300 mg/kg of oxonic acid potassium salt. After the administration, the eyeballs were removed to take blood, and the serum was separated for testing. After decapitation, the liver was taken, weighed, cut into pieces, added with saline, homogenized, and centrifuged. Operated according to the kit instructions to determine the blood uric acid (UA) level in each group of mice; determine the xanthine oxidase (XOD) activity in the supernatant of mouse liver homogenate.

[4] = target: T1, xanthine oxidase (XOD) (Mus musculus, UniProt Q00519); assay: Liver XOD activity in OA-induced hyperuricemia model mice; settings: for XOD(U/gprot): liver homogenate, mean ± SD
T1 construct: from tissue; host or cells: liver of KM mice (homogenate supernatant)
T1 sequence (Q00519 whole entry): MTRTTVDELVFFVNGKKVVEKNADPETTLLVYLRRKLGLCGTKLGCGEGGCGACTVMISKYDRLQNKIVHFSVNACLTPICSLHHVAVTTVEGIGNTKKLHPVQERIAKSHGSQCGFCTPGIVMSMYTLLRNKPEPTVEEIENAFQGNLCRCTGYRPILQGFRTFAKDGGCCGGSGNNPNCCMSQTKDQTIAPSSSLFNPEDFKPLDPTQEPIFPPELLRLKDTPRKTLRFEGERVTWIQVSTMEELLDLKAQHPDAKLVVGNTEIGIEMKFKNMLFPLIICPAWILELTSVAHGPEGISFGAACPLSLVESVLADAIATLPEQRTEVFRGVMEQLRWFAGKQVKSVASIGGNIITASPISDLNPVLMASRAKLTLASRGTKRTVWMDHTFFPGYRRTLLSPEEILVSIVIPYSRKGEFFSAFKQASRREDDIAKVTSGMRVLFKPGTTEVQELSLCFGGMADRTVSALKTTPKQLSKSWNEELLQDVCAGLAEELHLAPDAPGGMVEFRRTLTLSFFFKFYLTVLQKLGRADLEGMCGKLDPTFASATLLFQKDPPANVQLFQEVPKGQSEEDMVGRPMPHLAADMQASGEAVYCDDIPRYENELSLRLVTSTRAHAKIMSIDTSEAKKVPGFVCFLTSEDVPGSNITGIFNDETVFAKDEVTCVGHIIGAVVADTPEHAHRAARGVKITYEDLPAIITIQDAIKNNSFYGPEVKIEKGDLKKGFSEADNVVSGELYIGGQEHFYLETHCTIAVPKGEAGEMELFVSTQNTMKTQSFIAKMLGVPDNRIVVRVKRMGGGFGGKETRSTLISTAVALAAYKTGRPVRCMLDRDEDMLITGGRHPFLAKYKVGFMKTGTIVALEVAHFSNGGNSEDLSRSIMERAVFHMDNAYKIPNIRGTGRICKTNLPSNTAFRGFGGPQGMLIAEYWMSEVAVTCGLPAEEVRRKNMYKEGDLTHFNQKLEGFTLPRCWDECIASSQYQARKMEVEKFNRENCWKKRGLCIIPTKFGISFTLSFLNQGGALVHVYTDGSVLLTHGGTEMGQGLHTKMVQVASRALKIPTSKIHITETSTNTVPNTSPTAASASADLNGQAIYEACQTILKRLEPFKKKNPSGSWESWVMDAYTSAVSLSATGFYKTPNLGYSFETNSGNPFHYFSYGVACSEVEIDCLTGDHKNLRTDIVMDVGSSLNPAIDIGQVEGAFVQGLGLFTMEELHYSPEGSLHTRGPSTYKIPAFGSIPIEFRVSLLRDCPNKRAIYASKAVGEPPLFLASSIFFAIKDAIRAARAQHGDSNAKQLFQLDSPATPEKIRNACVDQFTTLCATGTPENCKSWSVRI
Description: as §1

[5] = 25 mg/kg intraperitoneal, 30 min after administration
[6] = 25 mg/kg intraperitoneal, 60 min after administration
[7] = 50 mg/kg intraperitoneal, 30 min after administration
[8] = 100 mg/kg intraperitoneal, 30 min after administration
[9] = 100 mg/kg intraperitoneal, 60 min after administration
[10] = 200 mg/kg intraperitoneal, 30 min after administration
[11] = 200 mg/kg intraperitoneal, 60 min after administration
[12] = 10 mg/kg once a day, 2 h after modeling, mean ± SD
[13] = 10 mg/kg once a day, 4 h after modeling, mean ± SD
[14] = 10 mg/kg once a day, 8 h after modeling, mean ± SD
[15] = 10 mg/kg once a day, 24 h after modeling, mean ± SD
[16] = 10 mg/kg once a day, 48 h after modeling, mean ± SD
[17] = 20 mg/kg once a day, 2 h after modeling, mean ± SD
[18] = 20 mg/kg once a day, 4 h after modeling, mean ± SD
[19] = 20 mg/kg once a day, 8 h after modeling, mean ± SD
[20] = 20 mg/kg once a day, 24 h after modeling, mean ± SD
[21] = 20 mg/kg once a day, 48 h after modeling, mean ± SD
[22] = 40 mg/kg once a day, 2 h after modeling, mean ± SD
[23] = 40 mg/kg once a day, 4 h after modeling, mean ± SD
[24] = 40 mg/kg once a day, 8 h after modeling, mean ± SD
[25] = 40 mg/kg once a day, 24 h after modeling, mean ± SD
[26] = 40 mg/kg once a day, 48 h after modeling, mean ± SD
[27] = 6.25 mg/kg gavage once a day for 7 days
[28] = 12.5 mg/kg gavage once a day for 7 days

| Structure (SMILES) | Percentage increase in pain threshold (%) [1, 5] [%] | Percentage increase in pain threshold (%) [1, 6] [%] | Percentage increase in pain threshold (%) [1, 7] [%] | Percentage increase in pain threshold (%) [1, 8] [%] | Percentage increase in pain threshold (%) [1, 9] [%] | Percentage increase in pain threshold (%) [1, 10] [%] | Percentage increase in pain threshold (%) [1, 11] [%] | Foot swelling [2, 12] [mL] | Foot swelling [2, 13] [mL] | Foot swelling [2, 14] [mL] | Foot swelling [2, 15] [mL] | Foot swelling [2, 16] [mL] | Foot swelling [2, 17] [mL] | Foot swelling [2, 18] [mL] | Foot swelling [2, 19] [mL] | Foot swelling [2, 20] [mL] | Foot swelling [2, 22] [mL] | Foot swelling [2, 23] [mL] | Foot swelling [2, 24] [mL] | Foot swelling [2, 25] [mL] | also measured |
| --- | --- | --- | --- | --- | --- | --- | --- | --- | --- | --- | --- | --- | --- | --- | --- | --- | --- | --- | --- | --- | --- |
| Cc1cc(C(=O)Nc2ccccc2O)no1 [UTLOH-4a] | −15.08 ± 37.87 | −16.76 ± 33.81 | −6.95 ± 41.45 | −19.99 ± 38.23 | −34.23 ± 39.23 | −30.12 ± 27.69 | −29.65 ± 24.62 | 0.33 ± 0.20 | 0.31 ± 0.10 | 0.29 ± 0.09 | 0.20 ± 0.11 | 0.03 ± 0.11 | 0.28 ± 0.13 | 0.3 ± 0.13 | 0.32 ± 0.09 | 0.21 ± 0.14 | 0.30 ± 0.13 | 0.36 ± 0.13 | 0.36 ± 0.09 | 0.19 ± 0.11 | percentage increase in the pain threshold, hot plate (in words) ([1]; 100 mg/kg and 200 mg/kg, 30 and 60 minutes after administration): significantly reduce; Foot swelling (ml) [2, 21]: 0.07 ± 13*^ ml; Foot swelling [2, 26]: 0.11 ± 0.09 mL; foot volume compared with the model group (in words) ([2]; low-): significantly reduce |
| Cc1cc(C(=O)Nc2ccc(O)cc2O)no1 [UTLOH-4e] | −17.71 ± 38.50 | −2.76 ± 34.01 | −3.15 ± 46.73 | 15.50 ± 103.74 | −11.18 ± 85.76 | −28.73 ± 28.36 | −16.72 ± 40.12 | 0.28 ± 0.09 | 0.34 ± 0.07 | 0.33 ± 0.11 | 0.22 ± 0.12 | 0.05 ± 0.07 | 0.18 ± 0.07 | 0.24 ± 0.06 | 0.19 ± 0.07 | 0.19 ± 0.12 | 0.20 ± 0.08 | 0.25 ± 0.05 | 0.19 ± 0.10 | 0.22 ± 0.07 | UA [3, 27]: 50.07 ± 9.86 µmol/L; UA [3, 28]: 47.15 ± 13.48 µmol/L; level of uric acid in the serum of model mice (in words) ([3]; versus model group): significantly reduce; XOD(U/gprot) [4, 27]: 21.55 ± 2.00 U/gprot; XOD(U/gprot) [4, 28]: 22.54 ± 3.98 U/gprot; liver XOD activity of model mice (in words) ([4]; versus model group): significantly reduce; percentage increase in the pain threshold, hot plate (in words) ([1]; 25 mg/kg and 200 mg/kg, 30 minutes after administration): significantly reduce; Percentage increase in pain threshold (%) ([1]; 50 mg/kg intraperitoneal, 60 min after administration): 8.36 ± 84.14%; Foot swelling [2, 21]: 0.09 ± 0.08 mL; Foot swelling [2, 26]: 0.09 ± 0.12 mL; foot volume compared with the model group (in words) ([2]; 2 h, 4 h, 8 h): significantly reduce |
